Assay [1] concerns the target T1, Sortase A (Staphylococcus aureus) (UniProt Q9S446).
T1 sequence (whole entry): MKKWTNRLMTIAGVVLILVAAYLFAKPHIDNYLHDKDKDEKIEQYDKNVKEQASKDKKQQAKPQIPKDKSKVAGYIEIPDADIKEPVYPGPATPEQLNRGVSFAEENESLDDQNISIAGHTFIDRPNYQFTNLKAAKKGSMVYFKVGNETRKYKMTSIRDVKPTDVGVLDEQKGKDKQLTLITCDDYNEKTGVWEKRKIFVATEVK
Put plainly: Inhibitory activity against Sortase A.

Assay [2] concerns the target T2, Sortase B (Staphylococcus aureus) (UniProt Q2FZE3).
T2 sequence (whole entry): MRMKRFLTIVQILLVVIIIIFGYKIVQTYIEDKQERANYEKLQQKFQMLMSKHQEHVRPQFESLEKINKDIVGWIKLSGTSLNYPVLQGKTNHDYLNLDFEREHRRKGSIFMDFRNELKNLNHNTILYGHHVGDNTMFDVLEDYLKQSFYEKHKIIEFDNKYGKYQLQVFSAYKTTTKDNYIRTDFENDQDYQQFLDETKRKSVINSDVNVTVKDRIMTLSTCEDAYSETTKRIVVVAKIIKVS
As to the kind of experiment: Inhibitory activity against Sortase B.

The source made the active and inactive calls. No cut-off for these calls is given here.

Take `CC(C)C[C@H](NC(=O)OCc1ccccc1)C(=O)N1CCC[C@H]1C(=O)N[C@@H](C)C(=O)N[C@H](CS)[C@@H](C)O`: in assay [1], the outcome was Active.
As to `C[C@@H](O)[C@@H](CS)NC(=O)[C@H](CCC(N)=O)NC(=O)[C@@H]1CCCN1C(=O)[C@H](CC(N)=O)NC(=O)OCc1ccccc1`, the outcome in assay [2] was Active.
